The values that follow are results of earlier work, collected in patent US7074355B2, “Process for dry granulation by agitative balling for the preparation of chemically stable, dry-flow, low compact, dust free, soluble spherical granules of phosphoroamidothioate” (United Phosphorus Ltd., priority 2003, dated 2006).

This data set relates to insects. The settings on record: systemic and contact insecticide of moderate persistence.

Take `COP(=O)(NC(C)=O)SC` (stereo not shown) [Acephate]: the residual activity lasting was 10 to 15 days.
